# Entries after “also recorded” stand apart in the source; their conditions may differ.
# Columns and labels:
# [1] = tested on: S. aureus SA113 (ATCC 35556); test: Bacterial growth (A578) and biofilm formation (crystal violet, A595) in 96-well polystyrene microtiter plates; format: cell-based, Staphylococcus aureus; details: for Biofilm (%) / Growth (%): 6 hours after seeding, control = 100%, mean ± SD
# Procedure: (§1) An overnight bacterial culture was 200-fold diluted with TSBg, and a 200 μL aliquot of the diluted culture was seeded into each well of 96-well polystyrene microtiter plates and incubated at 37° C. for a designated period of time. Cell growth was determined by measuring the absorbance at 578 nm (A578) with a microtiter plate reader (SpectraMax 340, Molecular Devices). After washing with PBS twice to remove suspended cells, the wells were stained with 0.1% (w/v) crystal violet in 10% ethanol and then treated with 30% acetic acid in dH2O, followed by detecting the absorbance at 595 nm (A595) with the microtiter plate reader to quantify the amount of biofilm formed on polystyrene surface.
# An overnight culture of S. aureus SA113 was 200-fold diluted with TSBg, and a 200 μL aliquot of the diluted culture was seeded into each well of 96-well microtiter plates. Compounds purified from medicinal plants were added into each well at a designated concentration up to […]. At 6 hours after seeding, the amounts of biofilms formed in the wells were determined by crystal violet staining as described above. Cells treated with either distilled water or DMSO were used as a control. The amount of biofilm formation by the control group was set as 100%. Each experiment was repeated at least three times, with n=6 for each sample tested. The concentrations of compounds that inhibited 50% biofilm formation (IB50) were calculated based on logistic regression analysis results. Besides, the biofilm formation inhibition rate of a PGG-treated group was calculated using the following equation (1). Biofilm formation inhibition rate(%)=[(A−B)/A]×100 (1) wherein:
# In the wells of 96-well microtiter plates, S. aureus SA113 cells were cultured in TSBg broth in the presence of either β-PGG or α-PGG at different amounts (0, 1 and 10 μM). After incubation at 37° C. for 6 hrs, the cell density was determined by measuring the absorbance at 578 nm (A578), and the amounts of biofilm were quantified by crystal violet staining, with the amount of biofilm formed by untreated bacterial cells being set as 100%. Each experiment was repeated three times, with n=6 for each sample tested.
# To determine the effect(s) of (β-PGG upon bacterial growth and biofilm formation, β-PGG in various amounts (final concentration: 0, 1.56, 3.13, 6.25, 12.5, 25 and 50 μM) was added into the culture of S. aureus SA113 during seeding into the wells of polystyrene microtiter plates, followed by incubation at 37° C. for 6 hrs or 24 hrs. Cell growth was determined by measuring the absorbance at 578 nm, and the amount of biofilm formed on polystyrene surface was determined at 595 nm after crystal violet staining. In addition to polystyrene surface, the effect of β-PGG in inhibiting biofilm formation on polycarbonate surface was also examined according to the procedures as described in the preceding section entitled “Materials and methods.”
# [2] = tested on: S. aureus clinical strain SA435 (MRSA); test: Growth (A578) and biofilm (A595) in polystyrene plates; format: cell-based, Staphylococcus aureus; details: 12.5 μM β-PGG, 6 hr
# Procedure: as §1
# [3] = tested on: S. aureus clinical strain SAChu (MRSA); test: as above; format: cell-based, Staphylococcus aureus; details: 12.5 μM β-PGG, 6 hr
# Procedure: as §1
# [4] = tested on: S. aureus clinical strain SA44 (MRSA); test: as above; format: cell-based, Staphylococcus aureus; details: 12.5 μM β-PGG, 6 hr
# Procedure: as §1
# [5] = tested on: S. aureus clinical strain SA289 (MSSA); test: as above; format: cell-based, Staphylococcus aureus; details: 12.5 μM β-PGG, 6 hr
# Procedure: as §1
# [6] = tested on: S. aureus clinical strain SA130 (MRSA); test: as above; format: cell-based, Staphylococcus aureus; details: 12.5 μM β-PGG, 6 hr
# Procedure: as §1
# [7] = tested on: S. aureus clinical strain SA486 (MRSA); test: as above; format: cell-based, Staphylococcus aureus; details: 12.5 μM β-PGG, 6 hr
# Procedure: as §1
# [8] = tested on: S. aureus clinical strain SA285 (MSSA); test: as above; format: cell-based, Staphylococcus aureus; details: 12.5 μM β-PGG, 6 hr
# Procedure: as §1
# [9] = tested on: S. aureus clinical strain SA703 (MRSA); test: as above; format: cell-based, Staphylococcus aureus; details: 12.5 μM β-PGG, 6 hr
# Procedure: as §1
# [10] = tested on: S. aureus clinical strain SA41 (MSSA); test: as above; format: cell-based, Staphylococcus aureus; details: 12.5 μM β-PGG, 6 hr
# Procedure: as §1
# [11] = tested on: S. aureus clinical strain SA288 (MSSA); test: as above; format: cell-based, Staphylococcus aureus; details: 12.5 μM β-PGG, 6 hr
# Procedure: as §1
# [12] = tested on: S. aureus clinical strain SA13 (MSSA); test: as above; format: cell-based, Staphylococcus aureus; details: 12.5 μM β-PGG, 6 hr
# Procedure: as §1
# [13] = tested on: S. aureus clinical strain SA33 (MSSA); test: as above; format: cell-based, Staphylococcus aureus; details: 12.5 μM β-PGG, 6 hr
# Procedure: as §1
# Enterococcus faecalis = test: Anti-biofilm activity (data not shown); format: cell-based
structure (smiles),measurement,setting,value
"O=C(OC[C@H]1O[C@@H](OC(=O)c2cc(O)c(O)c(O)c2)[C@H](OC(=O)c2cc(O)c(O)c(O)c2)[C@@H](OC(=O)c2cc(O)c(O)c(O)c2)[C@@H]1OC(=O)c1cc(O)c(O)c(O)c1)c1cc(O)c(O)c(O)c1 [β-PGG, 1,2,3,4,6-penta-O-galloyl-β-D-glucopyranose]",viability of S. aureus SA113 cells (A578),"[1]; 1 μM and 10 μM, 6 hour incubation (anomer comparison)",did not affect the viability
same,reduction of biofilm formation,"[1]; 1 μM, 6 hour incubation (anomer comparison)",10%
same,killing of S. aureus SA113,[1]; 10 μM,did not kill S. aureus SA113
same,reduction of biofilm formation,"[1]; 10 μM, 6 hour incubation (anomer comparison)",65%
same,Biofilm (%),[1]; 10 μM,5 ± 1%
same,Growth (%),[1]; 10 μM,109 ± 8%
same,Growth (A578),"[1]; 12.5 μM β-PGG, 6 hr, 0 μM: 0.68 ± 0.02",0.65 ± 0.03
same,Biofilm (A595),"[1]; 12.5 μM β-PGG, 6 hr, 0 μM: 6.31 ± 0.34",0.26 ± 0.28
same,reduction of biofilm formation,"[1]; 100 μM, 6 hours",98%
same,Biofilm (%),[1]; 100 μM,2 ± 0%
same,Growth (%),[1]; 100 μM,69 ± 5 %
same,amounts of biofilm on polystyrene surface after 24 hr incubation,[1]; 24 hrs,approximately equal to those observed after 6 hr incubation
same,inhibition at 6.25 µM,"[1]; Staphylococcus aureus, ATCC35556, 6.25 μM, 6 hrs, read-out: inhibition of biofilm formation on polystyrene surface",93%
same,inhibition at 10 µM,"[1]; Staphylococcus aureus, ATCC35556, 10 μM, 6 hr incubation (screening)",95%
same,inhibition at 12.5 µM,"[1]; Staphylococcus aureus, ATCC35556, 12.5 μM, 6 hrs, read-out: inhibition of biofilm formation on polystyrene surface",96%
same,inhibition at 25 µM,"[1]; Staphylococcus aureus, ATCC35556, 25 μM, 6 hrs, read-out: inhibition of biofilm formation on polystyrene surface",97%
same,inhibition at 100 µM,"[1]; Staphylococcus aureus, ATCC35556, 100 μM, 6 hours",31%
same,IC50,"[1]; Staphylococcus aureus, ATCC35556, 6 hours, logistic regression, read-out: IB50 (concentration that inhibited 50% biofilm formation)",3.6 µM
same,viability of S. aureus SA113,"[1]; concentrations below 50 μM, 6 hours incubation",did not affect the viability; also recorded: did not kill S. aureus SA113 cells
same,Cell Growth (%),[1]; growth compared to untreated control at the concentration of IB50,100%
same,Growth (A578),[2]; 0 μM: 0.64 ± 0.10,0.67 ± 0.09
same,Biofilm (A595),[2]; 0 μM: 0.97 ± 0.09,0.46 ± 0.06
same,Growth (A578),[3]; 0 μM: 0.56 ± 0.02,0.52 ± 0.04
same,Biofilm (A595),[3]; 0 μM: 8.06 ± 0.10,0.77 ± 0.11
same,Growth (A578),[4]; 0 μM: 0.66 ± 0.08,0.64 ± 0.04
same,Biofilm (A595),[4]; 0 μM: 1.33 ± 0.01,0.46 ± 0.01
same,Growth (A578),[5]; 0 μM: 0.77 ± 0.02,0.72 ± 0.07
same,Biofilm (A595),[5]; 0 μM: 1.16 ± 0.01,0.35 ± 0.01
same,Growth (A578),[6]; 0 μM: 0.61 ± 0.12,0.62 ± 0.17
same,Biofilm (A595),[6]; 0 μM: 3.05 ± 0.10,0.32 ± 0.04
same,Growth (A578),[7]; 0 μM: 0.76 ± 0.08,0.65 ± 0.02
same,Biofilm (A595),[7]; 0 μM: 1.94 ± 0.19,0.26 ± 0.07
same,Growth (A578),[8]; 0 μM: 0.56 ± 0.09,0.46 ± 0.03
same,Biofilm (A595),[8]; 0 μM: 0.86 ± 0.09,0.16 ± 0.02
same,Growth (A578),[9]; 0 μM: 0.74 ± 0.10,0.70 ± 0.07
same,Biofilm (A595),[9]; 0 μM: 2.33 ± 0.02,0.88 ± 0.07
same,Growth (A578),[10]; 0 μM: 0.65 ± 0.02,0.61 ± 0.05
same,Biofilm (A595),[10]; 0 μM: 1.67 ± 0.27,0.36 ± 0.05
same,Growth (A578),[11]; 0 μM: 0.55 ± 0.01,0.50 ± 0.01
same,Biofilm (A595),[11]; 0 μM: 0.83 ± 0.02,0.10 ± 0.01
same,Growth (A578),[12]; 0 μM: 0.69 ± 0.09,0.67 ± 0.06
same,Biofilm (A595),[12]; 0 μM: 0.98 ± 0.13,0.12 ± 0.04
same,Growth (A578),[13]; 0 μM: 0.79 ± 0.01,0.79 ± 0.04
same,Biofilm (A595),[13]; 0 μM: 0.80 ± 0.07,0.13 ± 0.03
same,anti-biofilm activity,Enterococcus faecalis,potent to mild anti-biofilm activity

# Reference: patent US9181290B2, “Inhibition of biofilm formation by 1,2,3,4,6-penta-O-galloyl-D-glucopyranose” (CHANG GUNG UNIVERSITY, priority 2011, dated 2015)
